Consider 20 molecules from patent US20090246169A1, “INDOLOPYRIDINES AS EG5 KINESIN MODULATORS” (priority 2006, published 2009).

Molecules are shown by their SMILES. Bounds are passed on as bounds.

This assay deals with RKO p21 colon adenocarcinoma cells, uninduced (proliferating). In words: Alamar Blue cell viability assay, RKO p21 uninduced (proliferating). In kind it is cell-based. The settings on record: Homo sapiens; anti-proliferative/cytotoxic activity, 72 hours, without Ponasterone A; read-out: −log EC50 [mol/l] RKO p21 uninduced (proliferating) (converted). On the procedure:
The anti-proliferative/cytotoxic activity of the compounds described herein can be tested on subclones of RKO human colon adenocarcinoma cells (Schmidt et al., Oncogene 19, 2423-2429; 2000) using the Alamar Blue cell viability assay (described in O'Brien et al. Eur J Biochem 267, 5421-5426, 2000). The compounds are dissolved as 10 mM solutions in DMSO and subsequently diluted in semi-logarithmic steps. DMSO dilutions are further diluted 1:100 into Dulbecco's modified Eagle's medium (DMEM) containing 10% fetal calf serum to a final concentration twice as much as the final concentration in the test. RKO subclones are seeded into 96 well flat bottom plates at a density of 4000 cells per well in a volume of 50 μl per well. 24 hours after seeding the 50 μl each of the compound dilutions in DMEM medium are added into each well of the 96 well plate. Each compound dilution is tested as triplicates. Wells containing untreated control cells are filled with 50 μl DMEM medium containing 1% DMSO. The cells are then incubated with the substances for 72 hours at 37° C. in a humidified atmosphere containing 5% carbon dioxide. To determine the viability of the cells, 10 μl of an Alamar Blue solution (Biosource) are added and the fluorescence is measured at an extinction of 544 nm and an emission of 590 nm. For the calculation of the cell viability the emission value from untreated cells is set as 100% viability and the emission rates of treated cells are set in relation to the values of untreated cells. Viabilities are expressed as % values. The Graphpad Prism program is used for the calculation of EC50 values for anti-proliferative/cytotoxic activity out of the obtained dose-response curves.
To determine the cell cycle specific mode of action, subclones of RKO colon adenocarcinoma cells (RKOp21 or RKOp27 as described by Schmidt et al. in Oncogene 19, 2423-2429; 2000) are seeded into 96 well flat bottom plates at a density of 16000 cells per well in a volume of 50 μl per well in DMEM growth medium with 10% FCS containing 10 μM Ponasterone A. 24 hours after seeding the 50 μl each of the compound dilutions in DMEM medium are added into each well of the 96-well plate. Each compound dilution is tested as triplicates. Wells containing untreated control cells are filled with 50 μl DMEM medium containing 1% DMSO. The cells are then incubated with the substances for 72 hours at 37° C. in a humidified atmosphere containing 5% carbon dioxide. To determine the viability of the cells, 10 μl of an Alamar Blue solution (Biosource) are added and the fluorescence is measured at an extinction of 544 nm and an emission of 590 nm. For the calculation of the cell viability the emission value from untreated cells is set as 100% viability and the emission rates of treated cells are set in relation to the values of untreated cells. Viabilities are expressed as % values. The Graphpad Prism program (GraphPad Software, Inc) is used for the calculation of EC50 values out of the obtained dose-response curves. Viability is compared of proliferating cells grown in the absence of the inducer Ponasterone A, versus viability of cells arrested by the expression of ectopic p27Kip1 induced by Ponasterone A.
Representative values for anti-proliferation/cytotoxicity [measured as −log EC50 (mol/l)] determined in the aforementioned assays follow from the following tables B1 and B2, in which the numbers of the compounds correspond to the numbers of the examples.
Background: Alamar Blue is a resazurin reagent that responds to reducing activity.
`COc1ccc2[nH]c3c(c2c1)C[C@@]1(C)C(=O)N(CCCN2CCOCC2)C(=O)N1[C@@H]3c1ccccc1` (racemic) [Example 61, (3aSR, 10RS)-6-Methoxy-3a-methyl-2-(3-morpholin-4-yl-propyl)-10-phenyl-3a,4,9,10-tetrahydro-2,9,10a-triaza-cyclopenta[b]fluorene-1,3-dione]: the EC50 is no more than 1000 nM.
Turning to `C=CCN(C)CCCN1C(=O)N2[C@H](c3ccccc3)c3[nH]c4ccc(OC)cc4c3C[C@@]2(C)C1=O` (racemic) [Example 57, (3aSR, 10RS)-2-[3-(Allyl-methyl-amino)-propyl]-6-methoxy-3a-methyl-10-phenyl-3a,4,9,10-tetrahydro-2,9,10a-triaza-cyclopenta[b] fluorene-1,3-dione], the EC50 is no more than 1000 nM.
The value for `CCN(CCCN1C(=O)N2[C@H](c3ccccc3)c3[nH]c4ccc(OC)cc4c3C[C@@]2(C)C1=O)CCOC` (racemic) [Example 56, (3aSR, 10RS)-2-{3-[Ethyl-(2-methoxy-ethyl)-amino]-propyl}-6-methoxy-3a-methyl-10-phenyl-3a,4,9,10-tetrahydro-2,9,10a-triaza-cyclopenta[b]fluorene-1,3-dione] was no more than 1000 nM; that for `CNCCCN1C(=O)N2[C@H](c3ccccc3)c3[nH]c4ccc(OC)cc4c3C[C@@]2(C)C1=O` (racemic) [Example 73, (3aSR, 10RS)-6-Methoxy-3a-methyl-2-(3-methylamino-propyl)-10-phenyl-3a,4,9,10-tetrahydro-2,9,10a-triaza-cyclopenta[b]fluorene-1,3-dione] was no more than 1000 nM.
In the case of `CCN(CCO)CCCN1C(=O)N2[C@H](c3ccccc3)c3[nH]c4ccc(OC)cc4c3C[C@@]2(C)C1=O` (racemic) [Example 55, (3aSR, 10RS)-2-{3-[Ethyl-(2-hydroxy-ethyl)-amino]-propyl}-6-methoxy-3a-methyl-10-phenyl-3a,4,9,10-tetrahydro-2,9,10a-triaza-cyclopenta[b]fluorene-1,3-dione], the EC50 is no more than 1000 nM.
With `COc1ccc2[nH]c3c(c2c1)C[C@@]1(C)C(=O)N(CCN(C)CCO)C(=O)N1[C@@H]3c1ccccc1` (racemic) [Example 30, (3aSR, 10RS)-2-{2-[(2-Hydroxy-ethyl)-methyl-amino]-ethyl}-6-methoxy-3a-methyl-10-phenyl-3a,4,9,10-tetrahydro-2,9,10a-triaza-cyclopenta[b]fluorene-1,3-dione] the figure was no more than 1000 nM; with `COc1ccc2[nH]c3c(c2c1)C[C@@]1(C)C(=O)N(CCN)C(=O)N1[C@@H]3c1ccccc1` (racemic) [Example 13, (3aSR,10RS)-2-(2-Amino-ethyl)-6-methoxy-3a-methyl-10-phenyl-3a,4,9,10-tetrahydro-2,9,10a-triaza-cyclopenta[b]fluorene-1,3-dione], no more than 1000 nM.
The value for `COc1ccc2[nH]c3c(c2c1)C[C@@]1(C)C(=O)N(CCN2CCCC2)C(=O)N1[C@@H]3c1ccccc1` (racemic) [Example 3, (3aSR,10RS)-6-Methoxy-3a-methyl-10-phenyl-2-(2-pyrrolidin-1-yl-ethyl)-3a,4,9,10-tetrahydro-2,9,10a-triaza-cyclopenta[b]fluorene-1,3-dione] was no more than 1000 nM.
Take `COc1ccc2[nH]c3c(c2c1)C[C@@]1(C)C(=O)N(CCCNC2CC2)C(=O)N1[C@@H]3c1ccccc1` (racemic) [Example 71, (3aSR, 10RS)-2-(3-Cyclo-propylamino-propyl)-6-methoxy-3a-methyl-10-phenyl-3a,4,9,10-tetrahydro-2,9,10a-triaza-cyclopenta[b] fluorene-1,3-dione]: the EC50 is no more than 1000 nM.
With `COc1ccc2[nH]c3c(c2c1)C[C@@]1(C)C(=O)N(CCCN2CCN(C(C)=O)CC2)C(=O)N1[C@@H]3c1ccccc1` (racemic) [Example 69, (3aSR, 10RS)-2-[3-(4-Acetyl-piperazin-1-yl)-propyl]-6-methoxy-3a-methyl-10-phenyl-3a,4,9,10-tetra-hydro-2,9,10a-triaza-cyclo-penta[b]fluorene-1,3-dione] the figure was no more than 1000 nM; with `COc1ccc2[nH]c3c(c2c1)C[C@@]1(C)C(=O)N(CCN2CC=CC2)C(=O)N1[C@@H]3c1ccccc1` (racemic) [Example 31, (3aSR, 10RS)-2-[2-(2,5-Dihydro-pyrrol-1-yl)-ethyl]-6-methoxy-3a-methyl-10-phenyl-3a,4,9,10-tetrahydro-2,9,10a-triaza-cyclopenta[b] fluorene-1,3-dione], no more than 1000 nM; with `COc1ccc2[nH]c3c(c2c1)C[C@@]1(C)C(=O)N(CCNCCO)C(=O)N1[C@@H]3c1ccccc1` (racemic) [Example 26, (3aSR, 10RS)-2-[2-(2-Hydroxy-ethylamino)-ethyl]-6-methoxy-3a-methyl-10-phenyl-3a,4,9,10-tetrahydro-2,9,10a-triaza-cyclopenta[b] fluorene-1,3-dione], no more than 1000 nM.
The value for `COc1ccc2[nH]c3c(c2c1)C[C@@]1(C)C(=O)N(CCCn2ccnc2)C(=O)N1[C@@H]3c1ccccc1` (racemic) [Example 63, (3aSR, 10RS)-2-(3-Imidazol-1-yl-propyl)-6-methoxy-3a-methyl-10-phenyl-3a,4,9,10-tetrahydro-2,9,10a-triaza-cyclopenta[b]fluorene-1,3-dione] was no more than 1000 nM; that for `COCCNCCCN1C(=O)N2[C@H](c3ccccc3)c3[nH]c4ccc(OC)cc4c3C[C@@]2(C)C1=O` (racemic) [Example 70, (3aSR, 10RS)-6-Methoxy-2-[3-(2-methoxy-ethylamino)-propyl]-3a-methyl-10-phenyl-3a,4,9,10-tetrahydro-2,9,10a-triaza-cyclopenta[b]fluorene-1,3-dione] was no more than 1000 nM.
The value for `COc1ccc2[nH]c3c(c2c1)C[C@@]1(C)C(=O)N(CCN2CCC2)C(=O)N1[C@@H]3c1ccccc1` (racemic) [Example 16, (3aSR,10RS)-2-(2-Azetidin-1-yl-ethyl)-6-methoxy-3a-methyl-10-phenyl-3a,4,9,10-tetrahydro-2,9,10a-triaza-cyclopenta[b]fluorene-1,3-dione] was no more than 1000 nM; that for `CCNCCN1C(=O)N2[C@H](c3ccccc3)c3[nH]c4ccc(OC)cc4c3C[C@@]2(C)C1=O` (racemic) [Example 15, (3aSR,10RS)-2-(2-Ethylamino-ethyl)-6-methoxy-3a-methyl-10-phenyl-3a,4,9,10-tetrahydro-2,9,10a-triaza-cyclopenta[b]fluorene-1,3-dione] was no more than 1000 nM.
Consider `COc1ccc2[nH]c3c(c2c1)C[C@@]1(C)C(=O)N(CCCN2CCC2)C(=O)N1[C@@H]3c1ccccc1` (racemic) [Example 60, (3aSR, 10RS)-2-(3-Azetidin-1-yl-propyl)-6-methoxy-3a-methyl-10-phenyl-3a,4,9,10-tetrahydro-2,9,10a-triaza-cyclopenta[b]fluorene-1,3-dione], for which the EC50 was no more than 1000 nM.
Consider `COc1ccc2[nH]c3c(c2c1)C[C@@]1(C)C(=O)N(CCCNCC(C)C)C(=O)N1[C@@H]3c1ccccc1` (racemic) [Example 52, (3aSR, 10RS)-2-(3-Isobutylamino-propyl)-6-methoxy-3a-methyl-10-phenyl-3a,4,9,10-tetrahydro-2,9,10a-triaza-cyclopenta[b] fluorene-1,3-dione], for which the EC50 was no more than 1000 nM.
With `C=CCN(C)CCN1C(=O)N2[C@H](c3ccccc3)c3[nH]c4ccc(OC)cc4c3C[C@@]2(C)C1=O` (racemic) [Example 37, (3aSR, 10RS)-2-[2-(Allyl-methyl-amino)-ethyl]-6-methoxy-3a-methyl-10-phenyl-3a,4,9,10-tetrahydro-2,9,10a-triaza-cyclopenta [b]fluorene-1,3-dione] the figure was no more than 1000 nM; with `COc1ccc2[nH]c3c(c2c1)C[C@@]1(C)C(=O)N(CCN2CCOCC2)C(=O)N1[C@@H]3c1ccccc1` (racemic) [Example 40, (3aSR, 10RS)-6-Methoxy-3a-methyl-2-(2-morpholin-4-yl-ethyl)-10-phenyl-3a,4,9,10-tetrahydro-2,9,10a-triaza-cyclopenta[b]fluorene-1,3-dione], no more than 1000 nM.
